According to publication PMC6827013, “Alpha-Glucosidase and Alpha-Amylase Inhibitory Activities of Novel Abietane Diterpenes from Salvia africana-lutea” (Antioxidants, 2019):
Where two headings read alike, the source gives them in different places.

What was measured:
[1] = Ferric-ion reducing antioxidant power (FRAP) assay; conditions: ascorbic acid equivalents; mean ± SEM, n = 3
Method: The FRAP assay was carried out in accordance with the method described previously. […] L-Ascorbic acid was used as a standard, and the results were expressed as µmole ascorbic acid equivalents per […] of dry weight (μM AAE/g DW) of the test samples.
The in vitro antioxidant activity of the isolated compounds of the methanolic extract of S. africana-lutea were investigated by evaluating their ferric-ion reducing antioxidant power (FRAP), trolox equivalent absorbance capacity (TEAC), and oxygen radical absorbance capacity (ORAC) activities. […] Nevertheless, other aspects can be considered, for example, the presence of vicinal hydroxyl groups is essential in a pronounced antioxidant activity. […] It has been shown that the phenolic group at the 11 position would be more implicated in the antioxidant activity. In general, phenolic compounds are expected to transfer electrons or donate protons to the reactive radicals because of the resonance stability of the phenoxy radical.

[2] = Oxygen radical absorbance capacity (ORAC) assay
Description: ORAC assay was done according to the previous method. ORAC values were expressed as micromoles of trolox equivalents (TE) per milligram of the test sample. Samples without a perfect curve were further diluted, and the dilution factors were used in the calculations of such samples.
(§1) The in vitro antioxidant activity of the isolated compounds of the methanolic extract of S. africana-lutea were investigated by evaluating their ferric-ion reducing antioxidant power (FRAP), trolox equivalent absorbance capacity (TEAC), and oxygen radical absorbance capacity (ORAC) activities. […] Phenolic compounds have been reported to be responsible for the antioxidant activity of numerous plant species by stabilization of radicals by donating electrons or by metal ion complexation, among other mechanisms. Nevertheless, other aspects can be considered, for example, the presence of vicinal hydroxyl groups is essential in a pronounced antioxidant activity. Abietane diterpenes are known for having strong antioxidant activity due to the presence of ortho-dihydroxyl groups/vicinal hydroxyls in the aromatic ring that serve as hydrogen and/or electron donating agents to the corresponding reactive species leading to the formation of the stable quinone derivatives. It has been shown that the phenolic group at the 11 position would be more implicated in the antioxidant activity. In general, phenolic compounds are expected to transfer electrons or donate protons to the reactive radicals because of the resonance stability of the phenoxy radical.

[3] = Trolox equivalent absorbance capacity (TEAC) assay
Method: The total anti-oxidant activity of the test sample was measured using previously described methods. Absorbance was read at 734 nm at 25 °C in a plate reader, and the results were expressed as μmole Trolox equivalents per […] of dry weight (μM TE/g DW) of the test samples.
as §1

[4] = biological target: α-glucosidase (Saccharomyces cerevisiae); experiment: Alpha-glucosidase inhibitory activity (p-NPG substrate, absorbance 405 nm); assay type: biochemical; conditions: mean ± SEM, n = 3; NA = not active at the test concentrations
Method: Alpha-glucosidase inhibitory activity of the isolated compounds was carried out according to the standard method, with a slight modification. […] Next, 20 μL of p-NPG (5 mM) was added as a substrate and incubated further at 37 °C for 20 min. The reaction was stopped by adding 50 μL of sodium carbonate Na2CO3 (0.1 M). […] Each experiment was performed in triplicates. […] Inhibitory activity (%) = (1 − A/B) ×100(1) where A is the absorbance in the presence of the test substance and B is the absorbance of the control.

[5] = biological target: T1, α-amylase (procaine pancreas) (Sus scrofa, UniProt P00690); experiment: Alpha-amylase inhibitory activity (starch substrate, DNS, absorbance 540 nm); assay type: biochemical; conditions: mean ± SEM, n = 3; NA = not active at the test concentrations
T1 construct: α-amylase (procaine pancreas); purchased Sigma-Aldrich, Cape town, South Africa; host or cells: pancreas
T1 sequence (P00690 16-511): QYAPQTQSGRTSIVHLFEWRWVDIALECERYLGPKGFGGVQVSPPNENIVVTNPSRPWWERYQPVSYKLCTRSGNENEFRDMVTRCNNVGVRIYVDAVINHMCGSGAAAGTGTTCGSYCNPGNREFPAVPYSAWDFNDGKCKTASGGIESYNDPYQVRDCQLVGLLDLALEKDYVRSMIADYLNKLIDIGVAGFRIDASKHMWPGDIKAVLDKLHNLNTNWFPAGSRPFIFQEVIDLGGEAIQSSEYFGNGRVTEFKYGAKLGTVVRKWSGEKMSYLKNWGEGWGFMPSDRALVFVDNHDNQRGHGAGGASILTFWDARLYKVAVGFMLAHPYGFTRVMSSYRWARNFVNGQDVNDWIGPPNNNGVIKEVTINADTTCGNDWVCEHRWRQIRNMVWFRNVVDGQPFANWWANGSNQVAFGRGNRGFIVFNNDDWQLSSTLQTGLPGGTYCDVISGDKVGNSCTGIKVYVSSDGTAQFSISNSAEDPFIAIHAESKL
Method: The alpha-amylase inhibitory activity of the extract and fractions was carried out according to the standard method, with a slight modification [24]. In a 96-well plate, the reaction mixture containing 50 μL of phosphate buffer (100 mM, pH = 6.8), 10 μL alpha amylase (2 U/mL), and 20 μL of varying concentrations of isolated compounds was pre-incubated at 37 °C for 20 min. Next, 20 μL of 1% soluble starch (100 mM phosphate buffer pH 6.8) was added as a substrate and incubated further at 37 °C for 30 min. A volume of 100 μL of the color reagent (DNS) was added and then boiled for 10 min. The absorbance of the resulting mixture was measured at 540 nm using a Multiplate Reader (Multiskan thermo scientific, version 1.00.40). […] Each experiment was performed in triplicates. The results were expressed as the percentage inhibition, which was calculated using Formula (2). Inhibitory activity (%) = (1 − A/B) ×100(2) where A is the absorbance in the presence of the test substance and B is the absorbance of the control.

[6] = Trolox equivalents, mean ± SEM, n = 3, NA = not active at the test concentrations

Compound | FRAP [1] [µM AAE/g] | ORAC [2] [µM TE/g] | ORAC [2, 6] [µmole TE/g] | TEAC [3, 6] [µmole TE/g] | TEAC [3] [µM TE/g] | Alpha-Glucosidase IC50 [4] [µg/mL] | IC50 [5] [µM]
COc1c(C(C)C)cc2c(c1O)[C@@]1(C(=O)O)CCC[C@](C)(COC(C)=O)C1CC2 (stereo partly shown) [Compound 1, 19-acetoxy-12-methoxycarnosic acid] | 1217.4 ± 2.9 | 2588.2 ± 10.1 | 2588.2 ± 10.1 | 694.0 ±1.6 | – | – | –
COC1c2cc(C(C)C)c(O)c(O)c2C23CCC(OC(C)=O)C(C)(C)C2C1OC3=O (stereo not drawn) [Compound 2, 3β-acetoxy-7α-methoxyrosmanol] | 2200.9 ± 14.2 | – | 2233.9 ± 8.0 | 635.7 ± 0.8 | – | – | –
COC1c2cc(C(C)C)c(O)c(O)c2C23CCCC(C)(COC(C)=O)C2C1OC3=O (stereo not drawn) [Compound 3, 19-acetoxy-7α-methoxyrosmanol] | 1440.4 ± 9.1 | – | 735.4 ± 2.0 | 124.4 ± 0.6 | – | – | –
COc1c(C(C)C)cc2c(c1O)C13CCCC(C)(COC(C)=O)C1CC2OC3=O (stereo not shown) [Compound 4, 19-acetoxy-12-methoxy carnosol] | 1257.0 ± 6.7 | – | 559.7 ± 15.2 | 440.1 ± 1.5 | – | – | –
CC(C)c1cc2c(c(O)c1O)[C@]13CCC[C@](C)(C(O)OC1=O)C3CC2 (stereo partly shown) [Compound 5, clinopodiolide A] | 2262.9 ± 11.0 | – | 2357.2 ± 0.1 | 862.2 ± 1.4 | 862.2 ± 1.4 | – | –
COc1c(C(C)C)cc2c(c1O)[C@]13CCC[C@](C)(C(O)OC1=O)C3CC2 (stereo partly shown) [Compound 6, clinopodiolide B] | 1480.0 ± 3.9 | – | 1502.5 ± 21.2 | 724.9 ± 1.3 | 705.5 ± 2.0 | 81.7 ± 2.1 | –
CC1(C)CC[C@]2(C(=O)O)CC[C@]3(C)C(=CC[C@@H]4[C@@]5(C)CC[C@H](O)C(C)(C)[C@@H]5CC[C@]43C)[C@@H]2C1 [Compound 7, oleanolic acid] | 347.8 ± 3.7 | – | – | – | – | – | –
CC1CCC23CCC4(C)C5(C)CCC6C(C)(C)C(O)CCC6(C)C5C=CC4(OC2=O)C3C1C (stereo not shown) [Compound 9, 11,12-dehydroursolic acid lactone] | 283.4 ± 3.9 | – | – | – | – | 85.8 ± 2.3 | –
CC1(C)CC[C@]2(C)CC[C@]3(C)C(=CC[C@@H]4[C@@]5(C)CC[C@H](O)C(C)(C)[C@@H]5CC[C@]43C)[C@@H]2C1 [Compound 10, β-amyrin] | 412.2 ± 13.0 | – | – | – | – | 17.1 ± 1.0 | 180
O=C(O[C@@H]1Cc2c(O)cc(O)cc2O[C@@H]1c1cc(O)c(O)c(O)c1)c1cc(O)c(O)c(O)c1 [EGCG, Epigallocatechingallate, reference compound] | 7525.0 ± 4.9 | – | 3976.8 ± 3.8 | 4146.4 ± 19.8 | – | – | –
